Experimental data: patent US20080194637A1, “Small organic molecule regulators of cell proliferation” (Curis, Inc., priority 2006, published 2008)
Where a name gives a salt, the structure may show the parent alone. Read-outs that look alike come from different tables or passages of the source.

Tests used:
[1] = tested on: sonic hedgehog pathway, Daoy human medulloblastoma cells; assay: Human hedgehog reporter assay Daoy-GliLuc (DGL); type: cell-based
Description: (§1) Mouse (TM3: mouse Leydig cells; S12: mouse embryonic mesenchymal cells) and human (Daoy: human medulloblastoma cell; HepM: human embryonic palatal mesenchymal cell) cell lines are used to screen small molecules for their ability to modulate the activity of the sonic hedgehog pathway (Table 1, Table 2, and Table 3). Stable hedgehog pathway reporter cell lines are established by specific antibiotic selection following transfection of a reporter plasmid containing a luciferase gene located directly downstream from the gli promoter. Consequently, any observable changes in cellular luciferase activity may be attributed to changes in sonic hedgehog pathway activity in mouse and human cells, respectively, since gli is the major by-product of this pathway. To calculate activity, we generate an eleven point dose curve for each compound using 1:3 dilutions in 96 well assay plates. Each plate tested also contains low and high control to establish maximal pathway activation so to establish/compare a percentage activation of each tested compound (AMAX) on respective plates. Also we calculate EC50 values, or a concentration where the pathway will be exactly 50% activated, for each tested compound to determine potency. In these cell lines, compounds that register >20% AMAX values are considered active.
(§2) Stable hedgehog pathway reporter cell lines are established following specific antibiotic selection following transfection of a reporter plasmid In short, typically cells are plated in MicroTiter-plates at 10,000-20,000 cells per well, in growth media (containing 10%-20% FBS). After 48-72 hrs (HGL and DGL respectively) the media in the assay plates is switched to low-serum containing media (0.5% FBS). At that time compounds are added (at 1-5 μM) to the assay plates, in the presence or absence of hedgehog protein (octyl-modified version; 1-5 ng/ml). After another 24 hrs of incubation, the media from the assay plates is discarded and replaced with luciferase assay-mix. Subsequently, plates are incubated at RT for ˜15-30 mins and then read in a luminometer. [note: addition of the Hedgehog protein, although not critical, will sensitize the assay allowing the identification of weak actives].

[2] = tested on: sonic hedgehog pathway, S12 mouse embryonic mesenchymal cells; assay: Hedgehog pathway Gli-luciferase reporter assay in S12 cells; type: cell-based
Description: as §1, §2

[3] = tested on: C57BL/6 male mice; assay: C57BL/6 hair growth after single topical dose; type: in vivo, mouse; settings: shaved lower back, dosed topically once, visually graded for melanogenesis and hair regrowth
Method: (§3) A mouse model of male pattern baldness is used to investigate the effectiveness of the present compounds for growing hair. Agonists for the sonic hedgehog pathway that act by binding and activating Smoothened were tested in a formulation of 50:30:20 PG:EtOH:water or 5:95 DMSO:acetone vehicle. C57BL/6 male mice (48-52 days old on arrival) from Charles River Labs were used on the study. The mice were housed and cared for according to established procedures. Food and water were ad libitum. On Day 0, the mice were shaved on their lower back, an area of ˜1.5 inches×˜2 inches with Wahl clippers using a surgical blade. On day −3, the mice were anesthetized with isoflurane, their back was rinsed with a pad of 70% ethanol, a placebo pellet or a DHT pellet (2.5 mg 21 day pellet) were implanted subcutaneously between the shoulder blades with a 10 gauge trochar. DHT pellet transplantation results in maintenance of existing hair follicles in the resting (telogen) phase. The hole was stapled with a sterile autoclip and the mice were returned to their cage after awaking. The mice were dosed topically once and visually graded daily, except weekends, for melanogenesis and hair regrowth of fur in the dosed area (Table 4).

[4] = tested on: C57BL/6 male mice with DHT pellet; assay: DHT-induced alopecia mouse model of male pattern baldness; type: in vivo; settings: C57BL/6 male mice with subcutaneous DHT pellet (2.5 mg 21 day), dosed topically once, visually graded for hair regrowth
Method: as §3
In the absence of treatment with the present compounds, the follicles remain in telogen rather than following the normal time course of the mouse hair cycle.

[5] = tested on: sonic hedgehog pathway, TM3 mouse Leydig cells; assay: Hedgehog pathway Gli-luciferase reporter assay in TM3 cells; type: cell-based; settings: Table 1
Description: as §1, §2

[6] = tested on: sonic hedgehog pathway, HepM human embryonic palatal mesenchymal cells; assay: Human hedgehog reporter assay HEPM-GliLuc (HGL); type: cell-based; settings: HepM human embryonic palatal mesenchymal cells, gli-luciferase reporter, Table 1
Description: as §1, §2

[7] = Daoy human cells, Gli-Luc, Table 2, read-out: Human Daoy (Gli-Luc) Avg. EC50
[8] = S12 mouse cells, Table 2, read-out: Mouse S12 Avg. EC50
[9] = Daoy human medulloblastoma cells, gli-luciferase reporter, Table 1, read-out: Daoy Avg. EC50
[10] = S12 mouse embryonic mesenchymal cells, Table 1, read-out: S12 Avg. EC50

SMILES | C57BL/6 Hair Growth [3] | Androgenetic Alopecia [4] | further results
CN[C@H]1CC[C@@H](N(Cc2cc(-c3cccc([S+](C)[O-])c3)ccc2OC)C(=O)c2sc3c(F)ccc(F)c3c2Cl)CC1 (stereo partly drawn) [Compound 376, 3-Chloro-4,7-difluoro-benzo[b]thiophene-2-carboxylic acid (3′-methanesulfinyl-4-methoxy-biphenyl-3-ylmethyl)-(4-methylamino-cyclohexyl)-amide trifluoroacetate] |  |  | EC50 [1, 7]: < 50 nM; EC50 [2, 8]: < 50 nM
CN[C@H]1CC[C@H](N(Cc2cc(-c3ccc(NS(C)(=O)=O)nc3)ccc2OC)C(=O)c2sc3c(F)ccc(F)c3c2Cl)CC1 | yes |  | 
CCOc1ccc(-c2ccc(C#N)cc2)cc1CN(C(=O)c1sc2ccccc2c1Cl)[C@H]1CC[C@H](NC)CC1 | yes |  | 
CN[C@H]1CC[C@H](N(Cc2cc(-c3ccc(N)nc3)ccc2OC)C(=O)c2sc3cccc(F)c3c2Cl)CC1 | yes | yes | 
CNC1CCC(N(Cc2cc(-c3ccncc3)ccc2OC)C(=O)c2sc3ccccc3c2Cl)CC1 (stereo not drawn) | yes | yes | 
CN[C@H]1CC[C@H](N(Cc2cc(-c3ccnc(C)c3)ccc2OC)C(=O)c2sc3ccccc3c2Cl)CC1 | yes | yes | 
CN[C@H]1CC[C@@H](N(Cc2cc(-c3ccc(SC)cc3)ccc2OC)C(=O)c2sc3c(F)ccc(F)c3c2Cl)CC1 [Compound 373, 3-Chloro-4,7-difluoro-benzo[b]thiophene-2-carboxylic acid (4-methoxy-4′-methylsulfanyl-biphenyl-3-ylmethyl)-(4-methylamino-cyclohexyl)-amide hydrochloride] |  |  | EC50 [1, 7]: < 50 nM; EC50 [2, 8]: < 50 nM
CN[C@H]1CC[C@@H](N(Cc2cc(-c3ccc(C(C)=O)cc3)ccc2OC)C(=O)c2sc3ccccc3c2Cl)CC1 [Compound 303, 3-Chloro-benzo[b]thiophene-2-carboxylic acid (4′-acetyl-4-methoxy-biphenyl-3-ylmethyl)-(4-methylamino-cyclohexyl)-amide hydrochloride] |  |  | EC50 [5]: < 50 nM; EC50 [1, 9]: < 50 nM; EC50 [2, 10]: < 50 nM; EC50 [6]: < 50 nM
CCOc1ccc(-c2ccc(C)nc2)cc1CN(C(=O)c1sc2ccccc2c1Cl)[C@H]1CC[C@H](NC)CC1 | yes |  | 
CN[C@H]1CC[C@H](N(Cc2cc(-c3ccc(S(C)(=O)=O)cc3)ccc2OC)C(=O)c2sc3ccccc3c2Cl)CC1 | yes | yes | 
COc1ccc(-c2cc[n+](C)cc2)cc1CN(C(=O)c1sc2c(F)ccc(F)c2c1Cl)[C@H]1CC[C@@H](N)CC1 [Compound 418] |  |  | EC50 ([1]; Daoy human cells, gli-luciferase reporter, Table 3, read-out: Daoy Avg. EC50): < 50 nM; EC50 ([2]; S12 mouse embryonic mesenchymal cells, Table 3, read-out: S12 Avg. EC50): 1000 to 2500 nM
CN[C@H]1CC[C@@H](N(Cc2cc(-c3cccc(SC)c3)ccc2OC)C(=O)c2sc3c(F)ccc(F)c3c2Cl)CC1 [Compound 372, 3-Chloro-4,7-difluoro-benzo[b]thiophene-2-carboxylic acid (4-methoxy-3′-methylsulfanyl-biphenyl-3-ylmethyl)-(4-methylamino-cyclohexyl)-amide hydrochloride] |  |  | EC50 [1, 7]: < 50 nM; EC50 [2, 8]: < 50 nM
CN[C@H]1CC[C@@H](N(Cc2cc(-c3cc[n+]([O-])cc3)ccc2OC)C(=O)c2sc3c(F)ccc(F)c3c2Cl)CC1 [Compound 374, 4-(3-((3-chloro-4,7-difluoro-N-((1s,4s)-4-(methylamino)cyclohexyl)benzo[b]thiophene-2-carboxamido)methyl)-4-methoxyphenyl)pyridine 1-oxide] |  |  | EC50 [1, 7]: < 50 nM; EC50 [2, 8]: < 50 nM
CN[C@H]1CC[C@@H](N(Cc2cc(-c3ccc([S+](C)[O-])cc3)ccc2OC)C(=O)c2sc3c(F)ccc(F)c3c2Cl)CC1 (stereo partly drawn) [Compound 377, 3-Chloro-4,7-difluoro-benzo[b]thiophene-2-carboxylic acid (4′-methanesulfinyl-4-methoxy-biphenyl-3-ylmethyl)-(4-methylamino-cyclohexyl)-amide trifluoroacetate] |  |  | EC50 [1, 7]: < 50 nM; EC50 [2, 8]: < 50 nM
CN[C@H]1CC[C@H](N(Cc2cc(-c3ccnc(C(=O)O)c3)ccc2OC)C(=O)c2sc3c(F)ccc(F)c3c2Cl)CC1 | no |  | 
CN[C@H]1CC[C@H](N(Cc2cc(-c3ccnc(C(=O)N(C)C)c3)ccc2OC)C(=O)c2sc3c(F)ccc(F)c3c2Cl)CC1 | yes | yes | 
CN[C@H]1CC[C@@H](N(Cc2cc(-c3cccnc3)ccc2OC)C(=O)c2sc3cccc(F)c3c2Cl)CC1 [360 (R16), 3-Chloro-4-fluoro-benzo[b]thiophene-2-carboxylic acid (2-methoxy-5-pyridin-3-yl-benzyl)-(4-methylamino-cyclohexyl)-amide dihydrochloride] |  |  | EC50 [5]: < 50 nM; EC50 [1, 9]: < 50 nM; EC50 [2, 10]: < 50 nM; EC50 [6]: < 50 nM
CN[C@H]1CC[C@H](N(Cc2cc(-c3ccc(C(N)=O)cc3)ccc2OC)C(=O)c2sc3c(F)ccc(F)c3c2Cl)CC1 | yes | yes | 
CN[C@H]1CC[C@H](N(Cc2cc(-c3ccccc3)ccc2OC)C(=O)c2sc3ccccc3c2Cl)CC1 | yes | yes | 
CN[C@H]1CC[C@H](N(Cc2cc(-c3ccnc(C(=O)OC)c3)ccc2OC)C(=O)c2sc3c(F)ccc(F)c3c2Cl)CC1 | yes | yes | 
CN[C@H]1CC[C@H](N(Cc2cc(-c3cc(C)nc(C)c3)ccc2OC)C(=O)c2sc3ccccc3c2Cl)CC1 | yes | yes | 
